In patent US11692194B2, “Modulating expression of polypeptides via new gene switch expression systems” (Precigen, Inc., priority 2017, dated 2023):
“Also recorded” adds a separate entry of the source.

How the values were obtained:
[1] = test system: CD19-specific CAR-T cells co-expressing RTS-mbIL-15; assay: Survival of CD19 CAR/RTS-mbIL-15 T cells upon withdrawal of IL-2 and IL-21; type: cell-based, human; conditions: veledimex 50 nM, ex vivo culture, % live cells by flow
Method: Multiple Sleeping Beauty transposon DNA plasmids encoding for RTS-membrane bound IL-15 (RTS-mbIL-15), CD19-specific chimeric antigen receptor (CD19 CAR) (Design 9, FIG. 2) were transfected into peripheral blood mononuclear cells (PBMC) along with plasmid DNA encoding for Sleeping Beauty transposase SB11 via nucleofection (FIG. 1). On day 0, 20 million PBMC were resuspended in 100 μL of Amaxa Human T cell Nucleofector solution (Cat. no. VPA-1002; Lonza, Basel, Switzerland) mixed with a total of 15 μg of transposons and 5 μg of transposase and nucleofected into cells. The following day (day1) cells were counted, and CAR expression was measured using flow cytometry. Cells were stimulated with either γ-irradiated (100 Gy) or mitomycin C treated K562 based AaPCs expressing CD19 on their surface at a 1:1 ratio. Cultures were supplemented with IL-21 (30 ng/ml) only for the first round of stimulation and subsequently with recombinant human IL-2 (50 IU/ml) and IL-21 (30 ng/ml) (Pepro Tech) for remaining stimulations. […] Cultures were also closely monitored for the outgrowth of NK cells (defined as CD3negCD56+ population) and were removed from the CAR T cell cultures when the percentage exceeded 10% of total cell populations using magnetic beads for CD56 (Stem Cell Technologies and/or Miltenyi Biotec), according to the manufacturer's instructions. […]

[2] = test system: RTS:mbIL15 in CAR T cells; assay: Serine recombinase (SF370) integrated single vector CAR:HER1t+RTS:mbIL15, flow cytometry of mbIL15; type: cell-based
Method: Various DNA plasmids containing serine recombinase attachment sites and components of the gene switch system as depicted in FIG. 17 were transfected to peripheral blood mononuclear cells (PBMC) via nucleofection to redirect T cell specificity. Specifically, 3 single vectors were tested in the presence and absence of a serine recombinase, SF370:
(i) CAR:HER1t+constitutive mbIL15 (positive control)
(ii) CAR:HER1t+promoterless mbIL15 (negative control)
(iii) CAR:HER1t+RTS:mbIL15
The expression of the CAR and mbIL15 was evaluated weekly (at days 1, day 8, day 15 and day 22). Aliquots of cells were treated with either DMSO or veledimex 24-48 h prior to each flow to assess inducible mbIL15 expression. AaPC Clone 1 was added weekly at a 1:1 ratio with CAR+ cells.

[3] = test system: inducible IL-12 constructs (XON-61 or XON-62) in EGFRvIII-CAR-T cells; assay: Veledimex ON-OFF cycling of IL-12 in EGFRvIII-CAR-T cells; type: cell-based
Method: For each ON-OFF cycle, veledimex was first added (ON) at previously mentioned concentrations (typically between 20-100 nM) to cell cultures for 2-3 days. An aliquot of cells was harvested and analyzed for expression (ON) of various proteins by flow cytometry and/or ELISA at noted time points. Remaining cell culture was then washed and resuspended in complete medium without veledimex (OFF) and cultured for up to 5 days. Aliquots of cells were harvested and analyzed for expression (OFF) at times mentioned by flow cytometry and/or ELISA as noted above. Veledimex ON-OFF cycle(s) can be repeated again with remaining cell culture by repeating the process.
The effect of repeated treatments and withdrawals of veledimex to EGFRvIII-CAR-T cells harboring an inducible IL-12 gene was determined in vitro both in the presence and absence of antigen specific T cell activation by co-culture with AaPCs. In the first cycle (ON-OFF) of ligand treatment, CAR-T cells (10^6/ml) expanded ex vivo by four successive rounds of stimulation with EGFRvIII^+ AaPCs were treated with DMSO or veledimex and cultured in the presence or absence of AaPCs in media containing IL-21 and IL-2. After 48 hours post-treatment, cells were washed thoroughly to remove ligand and cultured in a new culture vessel in media containing IL-21 and IL-2 for 5 days. Culture supernatants harvested between 24-120 hours post-treatment were then analyzed for expression of IL-12 and IFNγ.
In the second cycle (ON-OFF) of ligand treatment, CAR-T cells from cultures treated with DMSO or veledimex in the presence of AaPCs in cycle 1 were collected at 5 days after withdrawal of veledimex (in cycle 1) and subjected to a second cycle of ligand treatment with DMSO or veledimex in the presence or absence of antigen specific T cell activation by co-culture with AaPCs. After 48 hours post-treatment, cells were washed thoroughly to remove ligand and cultured in a new culture vessel in media containing IL-21 plus IL-2 for 5 days. Culture supernatants harvested between 24-120 hours post-treatment were then analyzed for expression of IL-12 and IFNγ.

## CCC[C@@H](N(NC(=O)c1cccc(OC)c1CC)C(=O)c1cc(C)cc(C)c1)C(C)(C)C [veledimex, N-[(1R)-1-(1,1-dimethylethyl)butyl]-N′-(2-ethyl-3-methoxybenzoyl)-3,5-dimethylbenzohydrazide]
[1]
  survival of CAR-T cells in absence of cytokines (IL-2 and IL-21): improved survival of CAR-T cells
[2]; day 22
  mbIL15 expression after removal of veledimex: complete loss of mbIL15 expression
[2]; two weeks post-transfection, ~48 h treatment
  mbIL-15 expression on veledimex treatment: induction of mbIL-15 expression
[3]; 48 h post-ligand treatment in cycle 2, with EGFRvIII^+ AaPCs
  IL-12 induction in cycle 2 after veledimex versus DMSO in cycle 1: increased IL-12 induction
[3]; cycle 1, culture supernatants at 48 h post-treatment
  IL-12 expression relative to DMSO: increase in IL-12 expression
[3]; cycle 1, presence vs absence of AaPCs
  levels of IL-12 induction with versus without antigen-specific stimulation: enhanced in the presence of AaPC-mediated antigen-specific stimulation; also recorded: significantly lower in the absence of antigen-specific stimulation
[3]; prolonged culture, repeated addition and withdrawal
  control of IL-12 expression over two cycles of ligand treatment: can be turned ON and OFF repeatedly; also recorded: can regulate IL-12 expression
[3]; withdrawal at 48 h post-treatment, presence and absence of AaPCs
  IL-12 expression after withdrawal of veledimex: reduction of IL-12 expression; also recorded: gradually reduced back to the baseline levels; also recorded: went down to baseline levels
